This note sets out measurements from patent US20160075653A1, “NEMATICIDAL N-(PHENYLCYCLOALKYL)CARBOXAMIDES AND N-(PHENYLCYCLOALKYL)THIOCARBOXAMIDES” (BAYER CROPSCIENCE AKTIENGESELLSCHAFT, priority 2013, published 2016).

The structures appear in SMILES notation.

The series can be described thus: Measurement of log P values by HPLC on reversed phase columns (methods [a] pH 2.3, [b] pH 2.7, [c] pH 7.8). The series is classed as physicochemical. The method, then: Measurement of log P-Values:
Measurement of log P Values was Performed According EEC Directive 79/831 Annex V.A8 by HPLC (High Performance Liquid
Chromatography) on reversed phase columns with the following methods: ^[a] Measurement was done at pH 2.3 with 0.1% phosphoric acid and acetonitrile as eluent with a linear gradient from 10% acetonitrile to 95% acetonitrile. ^[b] measurement of LC-MS was done at pH 2.7 with 0.1% formic acid in water and with acetonitrile (contains 0.1% formic acid) as eluent with a linear gradient from 10% acetonitrile to 95% acetonitrile. ^[c] Measurement with LC-MS was done at pH 7.8 with 0.001 molar ammonium hydrogen carbonate solution in water as eluent with a linear gradient from 10% acetonitrile to 95% acetonitrile.
Calibration was done with linear alkan-2-ones (with 3 to 16 carbon atoms) with known log P-values (measurement of log P values using retention times with linear interpolation between successive alkanones). Lambda-max-values were determined using UV-spectra from 200 nm to 400 nm and the peak values of the chromatographic signals.

Setting [1] is: HPLC on reversed phase columns, method [b], pH 2.7.
Where [2] appears, read: HPLC reversed phase, method [b] (pH 2.7).
Where [3] appears, read: HPLC on reversed phase column, method [b], pH 2.7.

With `CC(F)c1nn(C)cc1C(=O)NC1CCCC1c1ccc(F)c(F)c1` (mixture of isomers) [Example 126], the logP under setting [1] is 2.84^[b].

With `O=C(N[C@@H]1CCC[C@@H]1c1ccc(F)c(F)c1)c1ccsc1I` (relative stereo) [Compound 56], the logP under setting [1] is 3.29^[b].

As to `O=C(N[C@@H]1CCC[C@@H]1c1ccccc1F)c1ccc(I)s1` (relative stereo) [Compound 337], the logP is 3.70^[b] under setting [2] and 3.58^[c]; (HPLC reversed phase, method [c] pH 7.8).

Regarding `O=C(N[C@@H]1CC[C@@H]1c1c(F)cccc1F)c1ncccc1Cl` (relative stereo) [Compound 438], under setting [2], the logP is 2.73^[b].

Consider `O=C(N[C@@H]1CC[C@H]1c1ccc(F)cc1C(F)(F)F)c1ccccc1I` (relative stereo) [Compound 502], for which the logP under setting [2] is 3.76^[b].

In the case of `O=C(N[C@@H]1CC[C@@H]1c1ccccc1Cl)c1sccc1I` (relative stereo) [Compound 546], under setting [2], the logP was 3.72^[b].

Take `O=C(N[C@@H]1C[C@@H]1c1ccc(Cl)cc1Cl)c1ccccc1I` (relative stereo) [Compound 578]: under setting [2], the logP is 3.43^[b].

On to `O=C(N[C@@H]1C[C@@H]1c1ccc(Cl)cc1Cl)c1ccccc1Cl` (relative stereo) [Compound 580], for which, under setting [2], the logP was 3.27^[b].

As to `O=C(N[C@@H]1C[C@@H]1c1ccc(Cl)cc1Cl)c1c(F)cccc1F` (relative stereo) [Compound 581], the logP under setting [2] was 3.44^[b].

With `O=C(N[C@@H]1C[C@@H]1c1ccc(Cl)cc1Cl)c1sccc1I` (relative stereo) [Compound 582], the logP under setting [2] was 3.78^[b].

On to `O=C(N[C@@H]1CC[C@H]1c1cccc(F)c1C(F)(F)F)c1ccccc1Cl` (relative stereo) [Compound 598], for which the logP under setting [3] is 3.50^[b].

With `O=C(N[C@@H]1CC[C@@H]1c1cccc(F)c1C(F)(F)F)c1ccccc1Br` (relative stereo) [Compound 654], the logP under setting [3] is 3.30^[b].

`O=C(N[C@@H]1C[C@]1(F)c1ccc(Cl)cc1)c1c(F)cccc1F` (relative stereo) [Compound 750, rel-N-[(1R,2S)-2-(4-chlorophenyl)-2-fluorocyclopropyl]-2,6-difluorobenzamide]: the chromatographic logP (HPLC-MS, method [b]: pH 2.7, 0.1% formic acid / acetonitrile; read-out: log P^b)) came out at 2.69.

In the case of `COc1nn(C)cc1C(=O)N[C@@H]1C[C@H]1c1ccccc1` (relative stereo) [Example 41], under setting [1], the logP is 2.03^[b].

Consider `Cc1nn(C)c(F)c1C(=O)N[C@@H]1C[C@H]1c1ccccc1` (relative stereo) [Example 42], for which the logP under setting [1] was 1.99^[b].

Turning to `CCOc1nn(C)cc1C(=O)N[C@@H]1C[C@H]1c1ccccc1` (relative stereo) [Example 43], the logP under setting [1] was 2.36^[b].

In the case of `O=C(N[C@@H]1C[C@H]1c1ccccc1)c1ccccc1I` (relative stereo) [Example 44], the logP under setting [1] was 2.93^[b].

Take `O=C(N[C@@H]1C[C@H]1c1ccccc1)c1ccccc1Br` (relative stereo) [Example 45]: under setting [1], the logP is 2.79^[b].

As to `O=C(N[C@@H]1C[C@H]1c1ccccc1)c1ccccc1Cl` (relative stereo) [Example 46], the logP under setting [1] was 2.68^[b].

As to `O=C(N[C@@H]1C[C@H]1c1ccccc1)c1c(Cl)cccc1Cl` (relative stereo) [Example 47], the logP under setting [1] was 2.99^[b].

With `O=C(N[C@@H]1C[C@H]1c1ccccc1Cl)c1c(Cl)cccc1Cl` (relative stereo) [Example 50], the logP under setting [1] was 3.32^[b].

For the compound `O=C(N[C@@H]1C[C@H]1c1ccccc1Cl)c1ccccc1C(F)(F)F` (relative stereo) [Example 51], the logP under setting [1] is 3.31^[b].

On to `Cn1cc(C(=O)N[C@@H]2CCC[C@@H]2c2ccc(F)c(F)c2)c(C(F)F)n1` (relative stereo) [Example 52], for which the logP under setting [1] is 2.64^[b].

`CC(F)c1nn(C)cc1C(=O)N[C@@H]1CCC[C@@H]1c1ccc(F)c(F)c1` (relative stereo) [Example 53]: under setting [1], the logP is 2.62^[b].

On to `CCOc1nn(C)cc1C(=O)N[C@@H]1CCC[C@@H]1c1ccc(F)c(F)c1` (relative stereo) [Example 54], for which, under setting [1], the logP was 2.78^[b].

With `Cc1nc(C(F)(F)F)c(C(=O)N[C@@H]2CCC[C@@H]2c2ccc(F)c(F)c2)s1` (relative stereo) [Example 55], the logP under setting [1] was 3.19^[b].

Regarding `O=C(N[C@@H]1CCC[C@@H]1c1ccc(F)c(F)c1)C1=C(C(F)(F)F)OCCS1` (relative stereo) [Example 57], under setting [1], the logP is 3.19^[b].

Turning to `O=C(N[C@@H]1CCC[C@@H]1c1ccc(F)c(F)c1)c1ccccc1I` (relative stereo) [Example 58], under setting [1], the logP is 3.31^[b].

`Cc1occc1C(=O)N[C@@H]1CCC[C@@H]1c1ccc(F)c(F)c1` (relative stereo) [Example 59]: under setting [1], the logP is 3.06^[b].

Turning to `Cc1nocc1C(=O)N[C@@H]1CCC[C@H]1c1ccc(F)c(F)c1` (relative stereo) [Example 60], the logP under setting [1] is 2.78^[b].

For the compound `Cc1nocc1C(=O)N[C@@H]1CCC[C@@H]1c1ccc(F)c(F)c1` (relative stereo) [Example 61], the logP under setting [1] was 2.69^[b].

On to `Cc1ncccc1C(=O)N[C@@H]1CCC[C@@H]1c1ccc(F)c(F)c1` (relative stereo) [Example 62], for which the logP under setting [1] is 1.67^[b].

Regarding `Cc1ncccc1C(=O)N[C@@H]1CCC[C@H]1c1ccc(F)c(F)c1` (relative stereo) [Example 63], the logP under setting [1] was 1.75^[b].

For `Cc1cccnc1C(=O)N[C@@H]1CCC[C@@H]1c1ccc(F)c(F)c1` (relative stereo) [Example 64], the logP under setting [1] was 3.31^[b].

`Cc1ncncc1C(=O)N[C@@H]1CCC[C@@H]1c1ccc(F)c(F)c1` (relative stereo) [Example 65]: the logP under setting [1] is 2.15^[b].

For `O=C(N[C@@H]1CCC[C@@H]1c1ccc(F)c(F)c1)c1ccccc1F` (relative stereo) [Example 66], under setting [1], the logP is 3.33^[b].

As to `Cc1cc(C(=O)N[C@@H]2CCC[C@@H]2c2ccc(F)c(F)c2)c(C)o1` (relative stereo) [Example 67], under setting [1], the logP was 3.35^[b].

Take `O=C(N[C@@H]1CCC[C@@H]1c1ccc(F)c(F)c1)c1cccnc1F` (relative stereo) [Example 68]: the logP under setting [1] is 2.76^[b].

As for `O=C(N[C@@H]1CCC[C@@H]1c1ccc(F)c(F)c1)c1ccncc1F` (relative stereo) [Example 69], under setting [1], the logP is 2.59^[b].

In the case of `Cc1ccsc1C(=O)N[C@@H]1CCC[C@@H]1c1ccc(F)c(F)c1` (relative stereo) [Example 70], the logP under setting [1] was 3.39^[b].

`Cc1ncc(C(=O)N[C@@H]2CCC[C@@H]2c2ccc(F)c(F)c2)s1` (relative stereo) [Example 71]: the logP under setting [1] was 2.57^[b].

As for `Cc1nnsc1C(=O)N[C@@H]1CCC[C@@H]1c1ccc(F)c(F)c1` (relative stereo) [Example 72], the logP under setting [1] is 2.86^[b].

As to `N#Cc1ccccc1C(=O)N[C@@H]1CCC[C@@H]1c1ccc(F)c(F)c1` (relative stereo) [Example 73], the logP under setting [1] was 3.04^[b].

For `N#Cc1ncccc1C(=O)N[C@@H]1CCC[C@@H]1c1ccc(F)c(F)c1` (relative stereo) [Example 74], the logP under setting [1] was 3.21^[b].

As for `COc1ccccc1C(=O)N[C@@H]1CCC[C@@H]1c1ccc(F)c(F)c1` (relative stereo) [Example 75], the logP under setting [1] is 3.39^[b].

For `COc1nn(C)cc1C(=O)N[C@@H]1CCC[C@@H]1c1ccc(F)c(F)c1` (relative stereo) [Example 76], the logP under setting [1] was 2.64^[b].

For the compound `Cc1nn(C)c(F)c1C(=O)N[C@@H]1CCC[C@@H]1c1ccc(F)c(F)c1` (relative stereo) [Example 77], the logP under setting [1] is 2.60^[b].

On to `COc1cscc1C(=O)N[C@@H]1CCC[C@@H]1c1ccc(F)c(F)c1` (relative stereo) [Example 78], for which the logP under setting [1] is 3.29^[b].

As for `CC1=C(C(=O)N[C@@H]2CCC[C@@H]2c2ccc(F)c(F)c2)SCCO1` (relative stereo) [Example 79], the logP under setting [1] is 3.15^[b].

Take `O=C(N[C@@H]1CCC[C@@H]1c1ccc(F)c(F)c1)c1sccc1Cl` (relative stereo) [Example 80]: the logP under setting [1] was 3.72^[b].

With `CCCc1nn(C)cc1C(=O)N[C@@H]1CCC[C@@H]1c1ccc(F)c(F)c1` (relative stereo) [Example 81], the logP under setting [1] was 2.80^[b].

`CCc1nn(C)c(F)c1C(=O)N[C@@H]1CCC[C@@H]1c1ccc(F)c(F)c1` (relative stereo) [Example 83]: the logP under setting [1] is 2.92^[b].

`CCn1nc(C)c(C(=O)N[C@@H]2CCC[C@@H]2c2ccc(F)c(F)c2)c1F` (relative stereo) [Example 84]: the logP under setting [1] was 2.92^[b].

As for `Cc1nn(C)c(Cl)c1C(=O)N[C@@H]1CCC[C@@H]1c1ccc(F)c(F)c1` (relative stereo) [Example 85], under setting [1], the logP is 2.82^[b].

In the case of `CCCc1nn(C)c(F)c1C(=O)N[C@@H]1CCC[C@@H]1c1ccc(F)c(F)c1` (relative stereo) [Example 87], under setting [1], the logP is 3.25^[b].

As for `O=C(N[C@@H]1CCC[C@@H]1c1ccc(F)c(F)c1)c1ccccc1C(F)(F)F` (relative stereo) [Example 88], the logP under setting [1] was 3.50^[b].

For the compound `O=C(N[C@@H]1CCC[C@@H]1c1ccc(F)c(F)c1)c1cnccc1C(F)(F)F` (relative stereo) [Example 89], the logP under setting [1] is 2.92^[b].
